Measurements reported in article PMC8635623, “A click chemistry approach to pleuromutilin derivatives, evaluation of anti-MRSA activity and elucidation of binding mode by surface plasmon resonance and molecular docking” (Journal of Enzyme Inhibition and Medicinal Chemistry, 2021).
Values after ≈ are worked out from the molar mass of the structure shown. Read-outs that look alike come from different tables or passages of the source.

Experiments:
MRSA ATCC 43300 [1] = experiment: MIC/MBC by broth micro dilution; assay type: cell-based, methicillin-resistant S. aureus; details: Staphylococcus aureus; for MIC: 37 °C, 24 h, read-out: MIC; for MBC: lowest concentration reducing viable counts by 99.9%
Description: (§1) All the synthesised 1,2,3-triazole linked pleuromutilin analogues were screened for in vitro antibacterial activities against methicillin-resistant S. aureus (ATCC 43300), S. aureus (ATCC 29213), and two clinical strains of S. aureus (AD3 and 144, isolated from Guangdong Province, China). The MICs and MBCs of the synthesised pleuromutilin derivatives along with pleuromutilin and tiamulin used as the reference antibacterial drugs, were determined by the broth micro dilution methods according to the Clinical and Laboratory Standards Institute (CLSI)[18].
(§2) The MIC of these novel pleuromutilin derivatives against methicillin-resistant S. aureus (ATCC 43300), S. aureus (ATCC 29213), S. aureus (AD3) and S. aureus (144) were determined by using pleuromutilin and tiamulin as positive control. MIC values were determined by the broth micro dilution methods in accordance with the Clinical and Laboratory Standards Institute (2012). Stock solutions of these compounds were dissolved in methanol to make a stock solution with a concentration of 1280 µg/mL. The working solutions (640 µg/mL) were obtained by diluting stock solutions in sterile Mueller-Hinton (MH) broth. The bacterial solution and solutions of these compounds with a final concentration of 0.016–32 µg/mL were distributed into 96-well plates, with a total volume of 200 µL. Three parallel experiments for each compound concentration. The plates were incubated at 37 °C for 24 h.
(§3) MBC values were determined according to CLSI (2003) and previously report with slightly modification[18]^,[28]^,[31]. After obtaining the MIC results, the 96-well plates were incubated at 37 °C for 24 h. 100 µL of the bacterial solution from the wells with no visible growth was inoculated on MH agar plates. The MH agar plates were incubated at 37 °C for colony count. The MBC was determined as the lowest concentration of compound, which reduces the viable counts for 99.9%.

S. aureus 144 = experiment: MIC/MBC by broth micro dilution; assay type: cell-based; details: Staphylococcus aureus, S. aureus 144 (clinical strain); for MIC: 37 °C, 24 h; for MBC: lowest concentration reducing viable counts by 99.9%
Description: as §1, §2, §3

S. aureus AD3 = experiment: MIC/MBC by broth micro dilution; assay type: cell-based; details: Staphylococcus aureus, S. aureus AD3 (clinical strain); for MIC: 37 °C, 24 h; for MBC: lowest concentration reducing viable counts by 99.9%
Description: as §1, §2, §3

S. aureus ATCC 29213 = experiment: MIC/MBC by broth micro dilution; assay type: cell-based; details: Staphylococcus aureus; for MIC: ATCC29213, 37 °C, 24 h; for MBC: ATCC29213, lowest concentration reducing viable counts by 99.9%
Description: as §1, §2, §3

MRSA ATCC 43300 [2] = experiment: Constant concentration time-kill curves; assay type: cell-based, methicillin-resistant S. aureus; details: for time-kill kinetics result: 8 × MIC, cultured for 24 h; for concentration giving a bactericidal effect: time-kill, MRSA
Description: The time-kill kinetic approach was used to investigate the anti-MRSA activity of compounds 50, 62 and 64. The experimental results were presented in graphic form in Figure 2. Compared with growth control, compounds 50 and 62 inhibited the reproduction of bacteria to a certain extent.
The time-kill curve determination is an in vitro bactericidal kinetics model, which is used to study the sustained killing effect of bacteria within 24 h at a certain drug concentration. The bactericidal activity of compounds 50, 62 and 64 was determined by the time-kill curve as reported in our previous work[18]^,[22]. MRSA grown in MH broth were diluted to approximately 1 × 10^6 CFU/mL. […] 100 µL of samples were collected from the subculture inoculums before culture (0 h) and 3 h, 6 h, 9 h and 24 h after culture, and serially diluted 10-flod with sterile saline. The dilution of each gradient (25 µL) was uniformly suspended on the MH agar plates. The total bacterial CFU/mL on the plates were counted to calculate the bacterial colonies after up to 20 h of incubation at 37 °C. The results are represented by Mean ± SD, with the log10 CFU/mL of bacteria counts as the ordinate and time as the abscissa, the time-kill curves of different concentrations of compounds against MRSA were established respectively.

50S ribosome = experiment: SPR binding studies; set-up: species or system S. aureus; details: for Ka (association rate constant) / Kd (dissociation rate constant): PBST pH 7.4, compound immobilised, 50S ribosome 200-3200 nM
Description: In order to gain some insight into the binding mode of the potent inhibitors, SPR experiments were performed. […] The response unit (RU) of surface resonance was compared to determine the different binding affinities between each compound and the 50S ribosome. The association rate constants (Ka) and dissociation rate constant (Kd) represent the rate of association and dissociation in the binding reaction, respectively. The equilibrium dissociation constant (KD) indicated the degree of dissociation of compounds and the 50S ribosome in the equilibrium state. Their binding curves during the experiment were shown in Figure 3, as well as the concentration gradient curves were shown in Figure SI 27–34.
SPR biosensing experiments were performed at 4 °C using the bScreen LB 991 Label-free Microarray System (Berthold Technologies, Germany) and the photo-cross-linker sensor chip. The BIODOT™ AD-1520 Array Printer (BIODOT Inc., USA) was used for printing samples and control on the chip surface. A UV Spectroirradiator 1020 (Amersham Life Science, USA) was used for the photo-cross-linking reaction quickly after the array print.
As described in the reference[32–34] with minor modifications, the ribosome of S. aureus were extracted and purified to obtain 50S ribosome. MRSA (ATCC 43300) was incubated overnight at 37 °C. The bacteria solution was inoculated into a new culture solution, and cells were collected at an OD600 = 1.5. The bacterial culture was centrifuged 3 times at 3,500 rpm using a TX-400 rotor at 4 °C for 30 min, and then the supernatant was discarded. Cells were washed twice with 10 mM Tris-HCl (pH = 7.5), and suspend the precipitate with buffer A (20 mM HEPES-HCl pH = 7.5, 100 mM NH4Cl, 21 mM Mg(OAc)2, 1 mM EDTA, 1 mM DTT). Cells were lysed by repeated (>3×) snap-freezing and thawing, then ultrasonic disintegration was performed. To remove cell debris, the crushed product was centrifuged at 20,000 rpm for 90 min at 4 °C.The lysate layered on 15 ml of a sucrose cushion (10 mM HEPES-HCl pH = 7.5, 500 mM KCl, 25 mM Mg(OAc)2, 1.1 M sucrose, 0.5 mM EDTA, 1 mM DTT) and centrifuged in the ultracentrifuge(Optima^TM TL 100) at 45,000 rpm using a type70Ti rotor at 4 °C for 15 h to obtain ribosomal particles. Pellet was resuspended in 3 ml of buffer E (10 mM HEPES-HCl pH = 7.5, 100 mM KCl, 1 mM Mg(OAc)2, 0.5 mM EDTA, 1 mM DTT), then layered on 9 ml of 7–30% sucrose gradient and ultracentrifuged at 17,100 rpm using a typeSW40Ti rotor at 4 °C for 15 h. The gradient was analysed on the AKTA explorer system. The fractions corresponding to 50S ribosome were collected and PEG 20000 was added to a final concentration of 4.5% w/v. Ribosomes were pelleted by centrifugation at 20,000 rpm for 12 min, the pellet was gently dissolved in 200 µL of storage buffer (10 mM HEPES-HCl pH = 7.5, 15 mM KCl, 60 mM NH4Cl, 10 mM Mg(OAc)2, 1 mM DTT) and then flash-frozen for storage at −80 °C.
Dilute these compounds to a concentration of 10 mM with DMSO as the stationary phase printing working solution. After that, the printing working solution was printed on the sensor chip by the array printer, and each sample was printed four times repeatedly. Four groups of positive control dots (12 rapamycin dots, 3 in each corner) were printed on the four corners of the sensor chip respectively. The sample dots were dried in vacuum, and the sensor chip was quickly transferred to the UV spectroirradiator for a photo-cross-linking reaction. Subsequently, the sensor chip was washed with DMF, methanol, and water for 15 min in turn, followed by blowing dry under nitrogen, and then assembled with Flowcell Cover.
The binding studies were performed with PBST running buffer (pH = 7.4, 0.1% Tween 20) at a constant flow rate of 0.5 µL/s in instrument. 50S Ribosome was diluted separately with PBST running buffer to 200 nM, 400 nM, 800 nM, 1600 nM and 3200 nM and injected consecutively for 600 s at associating stage, followed by running buffer for 360 s at each dissociating stage. […]

[3] = 4 °C, PBST pH 7.4, KD = Kd/Ka, read-out: KD (equilibrium dissociation constant)

## C=C[C@]1(C)C[C@@H](OC(=O)Cn2cc(CN3CCN(c4ccccc4[N+](=O)[O-])CC3)nn2)[C@]2(C)[C@H](C)CC[C@]3(CCC(=O)[C@H]32)[C@@H](C)[C@@H]1O [Compound 62, 22-(2-(4-(4-(2-Nitrophenyl)-piperazin-1-yl)-methyl)-1H-1,2,3-triazol-1-yl)-22-deoxy pleuromutilin]
MRSA ATCC 43300 [1]
  MIC: 1 µg/mL (≈ 1.54 µM)
  MBC: 2 µg/mL (≈ 3.08 µM)
S. aureus 144
  MIC: 2 µg/mL (≈ 3.08 µM)
  MBC: 4 µg/mL (≈ 6.17 µM)
S. aureus AD3
  MIC: 1 µg/mL (≈ 1.54 µM)
  MBC: 4 µg/mL (≈ 6.17 µM)
S. aureus ATCC 29213
  MIC: 2 µg/mL (≈ 3.08 µM)
  MBC: 2 µg/mL (≈ 3.08 µM)
MRSA ATCC 43300 [2]
  time-kill kinetics result: relatively anti-MRSA bacteriostatic kinetics
  concentration giving a bactericidal effect: higher than 4 × MIC
50S ribosome; [3]
  Kd: 17.7 µM
50S ribosome; 4 °C
  Ka (association rate constant): 734 M⁻¹ s⁻¹
  Kd (dissociation rate constant): 0.013 s⁻¹
50S ribosome; read-out: interaction intensity level for 50S ribosome (KD class)
  Kd: 10 to 1000 µM

## C=C[C@]1(C)C[C@@H](OC(=O)Cn2cc(CN3CCN(c4ccccc4C)CC3)nn2)[C@]2(C)[C@H](C)CC[C@]3(CCC(=O)[C@H]32)[C@@H](C)[C@@H]1O [Compound 50, 22-(2-(4-(4-(o-Tolyl)-piperazin-1-yl)-methyl)-1H-1,2,3-triazol-1-yl)-22-deoxy pleuromutilin]
MRSA ATCC 43300 [1]
  MIC: 1 µg/mL (≈ 1.62 µM)
  MBC: 2 µg/mL (≈ 3.24 µM)
S. aureus 144
  MIC: 4 µg/mL (≈ 6.47 µM)
  MBC: 4 µg/mL (≈ 6.47 µM)
S. aureus AD3
  MIC: 2 µg/mL (≈ 3.24 µM)
  MBC: 4 µg/mL (≈ 6.47 µM)
S. aureus ATCC 29213
  MIC: 1 µg/mL (≈ 1.62 µM)
  MBC: 2 µg/mL (≈ 3.24 µM)
MRSA ATCC 43300 [2]
  time-kill kinetics result: relatively anti-MRSA bacteriostatic kinetics
  concentration giving a bactericidal effect: higher than 4 × MIC
50S ribosome; [3]
  Kd: 0.0232 µM
50S ribosome; 4 °C
  Ka (association rate constant): 170 M⁻¹ s⁻¹
  Kd (dissociation rate constant): 3.93e-06 s⁻¹

## C=C[C@]1(C)C[C@@H](OC(=O)Cn2cc(CN3CCN(c4ccccc4F)CC3)nn2)[C@]2(C)[C@H](C)CC[C@]3(CCC(=O)[C@H]32)[C@@H](C)[C@@H]1O [Compound 53, 22-(2-(4-(4-(2-Fluorophenyl)-piperazin-1-yl)-methyl)-1H-1,2,3-triazol-1-yl)-22-deoxy pleuromutilin]
MRSA ATCC 43300 [1]
  MIC: 2 µg/mL (≈ 3.22 µM)
  MBC: 4 µg/mL (≈ 6.43 µM)
S. aureus 144
  MIC: 8 µg/mL (≈ 12.9 µM)
  MBC: 8 µg/mL (≈ 12.9 µM)
S. aureus AD3
  MIC: 4 µg/mL (≈ 6.43 µM)
  MBC: 8 µg/mL (≈ 12.9 µM)
S. aureus ATCC 29213
  MIC: 4 µg/mL (≈ 6.43 µM)
  MBC: 8 µg/mL (≈ 12.9 µM)
50S ribosome; [3]
  Kd: 51 µM
50S ribosome; 4 °C
  Kd (dissociation rate constant): 0.00403 s⁻¹

## C=C[C@]1(C)C[C@@H](OC(=O)CSCCN(CC)CC)[C@]2(C)[C@H](C)CC[C@]3(CCC(=O)[C@H]32)[C@@H](C)[C@@H]1O [Tiamulin, tiamulin, reference compound]
MRSA ATCC 43300 [1]
  MIC: 0.5 µg/mL (≈ 1.01 µM)
  MBC: 1 µg/mL (≈ 2.03 µM)
S. aureus 144
  MIC: 1 µg/mL (≈ 2.03 µM)
  MBC: 2 µg/mL (≈ 4.05 µM)
S. aureus AD3
  MIC: 1 µg/mL (≈ 2.03 µM)
  MBC: 2 µg/mL (≈ 4.05 µM)
S. aureus ATCC 29213
  MIC: 0.5 µg/mL (≈ 1.01 µM)
  MBC: 1 µg/mL (≈ 2.03 µM)
50S ribosome; [3]
  Kd: 0.0363 µM
50S ribosome; 4 °C
  Ka (association rate constant): 122 M⁻¹ s⁻¹
  Kd (dissociation rate constant): 4.44e-06 s⁻¹

## C=C[C@]1(C)C[C@@H](OC(=O)Cn2cc(CN3CCN(c4cccc([N+](=O)[O-])c4)CC3)nn2)[C@]2(C)[C@H](C)CC[C@]3(CCC(=O)[C@H]32)[C@@H](C)[C@@H]1O [Compound 63, 22-(2-(4-(4-(3-Nitrophenyl)-piperazin-1-yl)-methyl)-1H-1,2,3-triazol-1-yl)-22-deoxy pleuromutilin]
MRSA ATCC 43300 [1]
  MIC: 2 µg/mL (≈ 3.08 µM)
  MBC: 2 µg/mL (≈ 3.08 µM)
S. aureus 144
  MIC: 4 µg/mL (≈ 6.17 µM)
  MBC: 16 µg/mL (≈ 24.7 µM)
S. aureus AD3
  MIC: 2 µg/mL (≈ 3.08 µM)
  MBC: 4 µg/mL (≈ 6.17 µM)
S. aureus ATCC 29213
  MIC: 4 µg/mL (≈ 6.17 µM)
  MBC: 8 µg/mL (≈ 12.3 µM)
50S ribosome; [3]
  Kd: 3.48 µM
50S ribosome; 4 °C
  Ka (association rate constant): 992 M⁻¹ s⁻¹
  Kd (dissociation rate constant): 0.00345 s⁻¹
